The source of these data is ChEMBL document CHEMBL5137025, “Tuberculosis Drug Discovery: Challenges and New Horizons” (J Med Chem, 2022).

For data set [1], the system named is Mycobacterium tuberculosis. It is filed as functional. Conditions: H37Rv, 336 h, time 14 day.
Data set [2] is described as follows: Absolute oral bioavailability in overnight fasted Sprague-Dawley rat at 5 mg/kg measured for 0.25 to 24 hrs. The data set is classed as ADME, organism-based. The note with it: in vivo, time 0.25-24 hrs.
The nature of data set [3]: Protein binding in human plasma. Conditions: read-out: PPB (converted). The data set is classed as ADME, cell-free.
Data set [4] in a line: Solubility of the compound. The data set is classed as physicochemical.
Data set [5] can be described thus: AUC in overnight fasted Sprague-Dawley rat at 5 mg/kg measured for 0.25 to 24 hrs. The data set is classed as ADME, organism-based. On the set-up: time upper 24 hrs, dose 5 mg/kg, time lower 0.25 hrs. The note with it: in vivo.
Data set [6] is described as follows: Half life in overnight fasted Sprague-Dawley rat at 5 mg/kg measured for 0.25 to 24 hrs. It is filed as ADME, organism-based. The note with it: in vivo, time 0.25-24 hrs.
The subject of data set [7] is Mycobacterium tuberculosis. The experiment in a line: Antibacterial activity against Mycobacterium tuberculosis Erdman in acute Mtb infection BALB/c mouse model assessed as reduction in log10 CFU in lungs at 150 mg/kg, po via gavage daily for 4 weeks. The data set is classed as functional.
For data set [8], the system named is A549. The experiment in a line: Cytotoxicity against human A549 cells. The data set is classed as functional.
Data set [9] relates to Mycobacterium tuberculosis. The experiment in a line: microbe, parasite or virus in culture. Conditions: H37Rv.
Description: Antibacterial activity against Mycobacterium tuberculosis H37Rv assessed as inhibition of bacterial growth
The test system of data set [10] is Mycobacterium tuberculosis. The data set is classed as functional. Conditions: H37Rv, 120 h, time 5 day.
Data set [11] concerns Mycobacterium tuberculosis. The data set is classed as functional. Conditions: H37Rv, time 6 day.
The next data set relates to HepG2. Description: Cytotoxicity against human HepG2 cells. The data set is classed as functional.
Data set [12] in a line: Selectivity index, ratio of CC50 for human HepG2 cells to MIC99 for Mycobacterium tuberculosis H37Rv. The data set is classed as toxicity.
The test system of data set [13] is Mycobacterium tuberculosis. The data set is classed as functional, H37Rv. The note with it: dose 50 mg/kg; route po; time 4 weeks.
Data set [14] relates to Mycobacterium tuberculosis. It is filed as functional, H37Rv.
Data set [15] deals with A549. Description: Potency index, ratio of SKLB-TB1001 to test compound CC50 for cytotoxicity against human A549 cells. The data set is classed as functional.
The test system of data set [16] is Mycobacterium tuberculosis. The data set is classed as functional, H37Rv. Conditions: dose 50 mg/kg/day; route po; time <= 28 day.
Data set [17] deals with Mycobacterium tuberculosis. The experiment in a line: Bactericidal activity against Mycobacterium tuberculosis H37Rv in chronic Mtb infection BALB/c mouse model assessed as log10 CFU kill at 20 mg/kg, po qd via gavage measured after 4 weeks. It is filed as functional.
Data set [18] concerns Mycobacterium tuberculosis. Description: Antibacterial activity against Mycobacterium tuberculosis in acute Mtb infection mouse model assessed as reduction in log10 CFU at 200 mg/kg for 3 weeks. It is filed as functional.
Data set [19] relates to Mycobacterium tuberculosis. The experiment in a line: Bactericidal activity against Mycobacterium tuberculosis in macrophages. It is filed as functional, Macrophage.
Data set [20] deals with Mycobacterium tuberculosis. The data set is classed as functional. The note with it: H37Rv, time 14-21 day.
The subject of data set [21] is Mycobacterium tuberculosis. The data set is classed as functional, H37Rv. Conditions: dose 25 mg/kg; route po; time 4 weeks.
Data set [22] concerns Mycobacterium tuberculosis. Description: Antibacterial activity against Mycobacterium tuberculosis Kurono in chronic Mtb infection Slc:ICR mouse model assessed as reduction in log10 CFU in lungs at 2.5 mg/kg, po qd for 4 weeks. It is filed as functional.
The subject of data set [23] is Mycobacterium tuberculosis. The experiment in a line: Antibacterial activity against Mycobacterium tuberculosis in chronic Mtb infection Wistar rat model assessed as reduction in log10 CFU in lungs at 100 mg/kg, po. It is filed as functional.
In data set [24] the test system is Mycobacterium tuberculosis. The data set is classed as functional. The note with it: H37Rv.
Data set [25] has as its system Mycobacterium tuberculosis. Description: Antibacterial activity against Mycobacterium tuberculosis Erdman in acute Mtb infection BALB/c mouse model assessed as reduction in log10 CFU in lungs at 50 mg/kg, po via gavage for 8 weeks. The data set is classed as functional.

The term bioavailability denotes dose-corrected exposure relative to a reference, in per cent. One may read the solubility as how much of the substance goes into solution per volume. A lower solubility goes with a poorly soluble substance. One may read the AUC as the area under the concentration-time curve, a measure of exposure. Low readings indicate less exposure, high ones more exposure. As usually defined, the half-life is the time in which the quantity being followed falls by half. High values mean slow decline, low ones rapid decline. What is called CC50 is the concentration at which the toxic effect on the cells reaches its halfway point. A higher CC50 goes with lower toxicity to the cells. By MIC99 is commonly meant the lowest concentration that inhibits either 99% of growth or 99% of the strains tested, depending on the study. Lower therefore signals higher susceptibility. What is called MIC50 is the lowest concentration that inhibits either 50% of growth or 50% of the strains tested, depending on the study. The low end stands for higher susceptibility, the high end for lower susceptibility.

In brackets after ≈: the same amount, converted by molar mass.

`O=C(Nc1ccc(N2CCN(c3ccccn3)CC2)c(F)c1)c1ccc2no[n+]([O-])c2c1`: the MIC90 in data set [1] was found to be 0.09 µM (≈ 0.0391 µg/mL).

In data set [1], `O=C(Nc1ccc(N2CCSCC2)c(F)c1)c1ccc2no[n+]([O-])c2c1` came in with an MIC90 of 0.7 µM (≈ 0.262 µg/mL).

As for `O=c1nc(N2CCC3(CC2)OCCO3)sc2c([N+](=O)[O-])cc(C(F)(F)F)cc12`, the bioavailability in data set [2] turned out to be 44%. For the same molecule, the fraction unbound in data set [3] is 0.006. The solubility in [4] is below 2.3 µM. For the same molecule, in [5], the AUC worked out at 847 ng·h/mL. In data set [6], the half-life is 1.5 h. Moreover, the Activity in [7] was determined as 3.4 log10CFU. Besides, the CC50 in the data set with A549 [8] was above 231 µM. Further, in data set [9], the MIC90 is 0.045 µM (≈ 0.0188 µg/mL).

In data set [9], `O=S(=O)(NCCO)c1ccc(-c2nnn(Cc3ccc(F)cn3)n2)cc1` displayed an MIC of 0.07 µM (≈ 0.0265 µg/mL).

For `CS(=O)(=O)N1N=Cc2ccc(Oc3ccc(C#N)cc3)cc2B1O`, the MIC90 in data set [10] worked out at 36 µM (≈ 12.3 µg/mL).

`O=c1nc(N2CCN(S(=O)(=O)C3CC3)CC2)sc2c([N+](=O)[O-])cc(C(F)(F)F)cc12` yielded an MIC99 in data set [11] of 0.0065 µM (≈ 0.00302 µg/mL). The molecule also returned a solubility in data set [4] of 19 µM (≈ 8.82 µg/mL). This molecule also showed a CC50 in the data set on HepG2 of 17 µM. Moreover, the selectivity ratio in [12] amounted to 2620. For the same molecule, in [13], the Activity was determined as 0.5 log10CFU.

The molecule `COc1ncc(-c2ccc(Cl)cc2)cc1[C@@H](c1ccccc1)[C@@](O)(CCN(C)C)c1cccc2ccccc12` showed an MIC90 in data set [9] of 0.13 µM (≈ 0.0698 µg/mL).

Take `COc1nc2ccc(Br)cc2cc1[C@@H](c1ccccc1)[C@@](O)(CCN(C)C)c1cccc2ccccc12` [BEDAQUILINE]: the Ratio in [14] was 6. This molecule also had an MIC90 in data set [9] of 0.022 µM (≈ 0.0122 µg/mL).

`C[C@H]1COC2(CCN(c3nc(=O)c4cc(C(F)(F)F)cc([N+](=O)[O-])c4s3)CC2)O1` [BTZ-043]: the bioavailability in data set [2] turned out to be 30%. For the same molecule, the AUC in [5] amounted to 899 ng·h/mL. The same molecule had a half-life in [6] of 1.2 h. The midpoint of cytotoxicity in the data set with A549 [8], the CC50, lay at 58 µM. In addition, the Ratio in the data set on A549 [15] is reported as 4. The same molecule returned an Activity in data set [16] of 0.6 log10CFU.

Turning to `Cc1cc(Nc2ncc(Cl)c(Nc3ccccc3S(=O)(=O)C(C)C)n2)c(OC(C)C)cc1C1CCNCC1` [CERITINIB], in data set [9], the MIC90 amounted to 9 µM (≈ 5.02 µg/mL).

As to `CC(C)/N=c1\cc2n(-c3ccc(Cl)cc3)c3ccccc3nc-2cc1Nc1ccc(Cl)cc1` [CLOFAZIMINE], in data set [17], the Activity was determined as 2.2 log10CFU.

`N[C@@H]1CONC1=O` [CYCLOSERINE]: the MIC in data set [9] was 157 µM (≈ 16 µg/mL).

Take `CCc1cc(C(N)=S)ccn1` [ETHIONAMIDE]: the MIC in [9] stood at 12 µM (≈ 1.99 µg/mL).

With `C[C@@H](O)[C@H]1C(=O)N2C(C(=O)O)=C([C@H]3CCCO3)S[C@H]12` [FAROPENEM], in [18], the Activity was determined as 2.4 log10CFU. In [9], this molecule had an MIC90 of 1.8 µM (≈ 0.514 µg/mL).

In turn, `Cc1cccc(OC2CCN(Cc3cc(=O)[nH]c(=O)[nH]3)CC2)c1C` [GSK-2556286] had an Activity in data set [19] below 0.1 µM.

For the molecule `CC(=O)NC[C@H]1CN(c2ccc(N3CCOCC3)c(F)c2)C(=O)O1` [LINEZOLID], the MIC in data set [20] and in [9] was 1.5 µM (≈ 0.506 µg/mL) throughout.

Consider `O=c1nc(N2CCN(CC3CCCCC3)CC2)sc2c([N+](=O)[O-])cc(C(F)(F)F)cc12` [MACOZINONE], for which the Activity in [21] is 1 log10CFU; in data set [16] it was 1.1 log10CFU.

Turning to `O=C1CCc2c(OC[C@]3(O)CCN(c4c(F)cc(Cl)cc4F)C[C@H]3O)ccc(F)c2N1` [QUABODEPISTAT], the Activity in data set [22] is above 1 log10CFU.

In data set [9], `CC(C)=CCC/C(C)=C/CNCCNC1C2CC3CC(C2)CC1C3` (centres undefined) [SQ109] yielded an MIC of 1.2 µM (≈ 0.397 µg/mL).

With `CC(=O)NC[C@H]1CN(c2ccc(N3CCSCC3)c(F)c2)C(=O)O1` [SUTEZOLID], the MIC80 in data set [9] amounted to 0.28 µM (≈ 0.099 µg/mL).

For `COc1ncnc(Cn2cc(C(=O)NCCO)c3ncc(C)cc32)c1C` [TBA-7371], the Activity in data set [23] was 1 log10CFU.

In [24], `CCc1nc2ccc(Cl)cn2c1C(=O)NCc1ccc(N2CCC(c3ccc(OC(F)(F)F)cc3)CC2)cc1` [TELACEBEC] had an MIC50 of 0.0027 µM (≈ 0.0015 µg/mL). The MIC90 in [9] came out at 0.011 µM (≈ 0.00613 µg/mL). The Activity in [25] worked out at 0.6 log10CFU.
